Biological target: Protein kinase C alpha type (Homo sapiens, UniProt P17252)
Test: Inhibition of Protein kinase C alpha

Row | IC50 | SMILES
1 | 3.3 nM | O=C(N[C@@H]1CSCCCC1OC(=O)c1ccc(C(=O)C2C(O)=CC=CC2C(=O)O)c(O)c1)c1ccc(O)cc1 (stereo not given in full)
2 | 0.27 nM | O=C(N[C@@H]1CCCCCC1OC(=O)c1ccc(C(=O)C2C(O)=CC=CC2C(=O)O)c(O)c1)c1ccc(O)cc1 (stereo not given in full)
3 | 6.7 nM | O=C(N[C@@H]1COCCCC1OC(=O)c1ccc(C(=O)C2C(O)=CC=CC2C(=O)O)c(O)c1)c1ccc(O)cc1 (stereo not given in full)
4 | 0.074 nM | O=C(N[C@@H]1CNCCC[C@H]1OC(=O)c1cc(O)c(C(=O)c2c(O)cccc2C(=O)O)c(O)c1)c1ccc(O)cc1 [Acyclic Balanol Analog (-)-1]
5 | 9.6 nM | O=C(N[C@@H]1CS(=O)(=O)CCCC1OC(=O)c1ccc(C(=O)C2C(O)=CC=CC2C(=O)O)c(O)c1)c1ccc(O)cc1 (stereo not given in full)

— BindingDB's records for doi:10.1021/jm000443d (University of California At San Diego, 2001)
